# Measured values taken from PubChem BioAssay AID2060901 (Molecular Pharmacology Branch, DTP, NCI, 2025).
# Tested on: 422866-222-R5-J1-PDC complex spheroids viability
# Experiment: Anticancer human tumor 422866-222-R5-J1-PDC patient-derived pancreatic adenocarcinoma cell line growth inhibition [RAS]
# Settings: for IC50: curve of first compound; for viability, T/C: stronger effect = lower value
# How it was run: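 Agents were tested in combination matrices in half-log decrements from a top concentration at or near clinical Cmax (10 microM if undetermined). Targets were multi-cell spheroids of tumour lines plus HUVEC and MSC stromal cells.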
# 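Further: spheroids exposed to compounds for 7 days.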
# 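Wherever viability, T/C is given: 100% = DMSO vehicle control viability.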
structure (smiles),measurement,setting,value
C=CC(=O)N1CCN(c2nc(OCC3CCCN3C)nc3c(F)c(-c4nc(N)cc(C)c4C(F)(F)F)c(Cl)cc23)C(C)C1 (centres undefined) + CCn1c(-c2cc(N3CCN(C)CC3)cnc2C(C)OC)c2c3cc(ccc31)-c1csc(n1)CC(NC(=O)C1CC1C)C(=O)N1CCCC(N1)C(=O)OCC(C)(C)C2,IC50,second compound 0.000949 µM,< 3.16 nM
same,IC50,second compound 0.003 µM,< 3.16 nM
same,IC50,second compound 0.00949 µM,< 3.16 nM
same,IC50,second compound 0.03 µM,< 3.16 nM
same,IC50,second compound 0.0949 µM,< 3.16 nM
same,IC50,second compound 0.3 µM,< 3.16 nM
same,"viability, T/C","second compound 0.000949 µM, first compound 0.00316 µM",19.5%
same,"viability, T/C","second compound 0.000949 µM, first compound 0.01 µM",18.6%
same,"viability, T/C","second compound 0.000949 µM, first compound 0.0316 µM",16.9%
same,"viability, T/C","second compound 0.000949 µM, first compound 0.1 µM",18.5%
same,"viability, T/C","second compound 0.000949 µM, first compound 0.316 µM",15.8%
same,"viability, T/C","second compound 0.000949 µM, first compound 1 µM",20.3%
same,"viability, T/C","second compound 0.003 µM, first compound 0.00316 µM",19.6%
same,"viability, T/C","second compound 0.003 µM, first compound 0.01 µM",15%
same,"viability, T/C","second compound 0.003 µM, first compound 0.0316 µM",19.8%
same,"viability, T/C","second compound 0.003 µM, first compound 0.1 µM",18.2%
same,"viability, T/C","second compound 0.003 µM, first compound 0.316 µM",17.9%
same,"viability, T/C","second compound 0.003 µM, first compound 1 µM",20.6%
same,"viability, T/C","second compound 0.00949 µM, first compound 0.00316 µM",18.3%
same,"viability, T/C","second compound 0.00949 µM, first compound 0.01 µM",19.1%
same,"viability, T/C","second compound 0.00949 µM, first compound 0.0316 µM",17.4%
same,"viability, T/C","second compound 0.00949 µM, first compound 0.1 µM",14.8%
same,"viability, T/C","second compound 0.00949 µM, first compound 0.316 µM",17.7%
same,"viability, T/C","second compound 0.00949 µM, first compound 1 µM",18%
same,"viability, T/C","second compound 0.03 µM, first compound 0.00316 µM",17.1%
same,"viability, T/C","second compound 0.03 µM, first compound 0.01 µM",15.9%
same,"viability, T/C","second compound 0.03 µM, first compound 0.0316 µM",15.7%
same,"viability, T/C","second compound 0.03 µM, first compound 0.1 µM",17.9%
same,"viability, T/C","second compound 0.03 µM, first compound 0.316 µM",18.2%
same,"viability, T/C","second compound 0.03 µM, first compound 1 µM",22.9%
same,"viability, T/C","second compound 0.0949 µM, first compound 0.00316 µM",19.4%
same,"viability, T/C","second compound 0.0949 µM, first compound 0.01 µM",16.9%
same,"viability, T/C","second compound 0.0949 µM, first compound 0.0316 µM",15.9%
same,"viability, T/C","second compound 0.0949 µM, first compound 0.1 µM",19%
same,"viability, T/C","second compound 0.0949 µM, first compound 0.316 µM",21.3%
same,"viability, T/C","second compound 0.0949 µM, first compound 1 µM",21.5%
same,"viability, T/C","second compound 0.3 µM, first compound 0.00316 µM",19.5%
same,"viability, T/C","second compound 0.3 µM, first compound 0.01 µM",22.9%
same,"viability, T/C","second compound 0.3 µM, first compound 0.0316 µM",21.7%
same,"viability, T/C","second compound 0.3 µM, first compound 0.1 µM",20.2%
same,"viability, T/C","second compound 0.3 µM, first compound 0.316 µM",19.5%
same,"viability, T/C","second compound 0.3 µM, first compound 1 µM",24.9%
CC1(C)CCC(Nc2ncc(C(F)(F)F)c(-c3c[nH]c4c(P(C)(C)=O)c(C#N)ccc34)n2)CN1 (centres undefined) + CCn1c(-c2cc(N3CCN(C)CC3)cnc2C(C)OC)c2c3cc(ccc31)-c1csc(n1)CC(NC(=O)C1CC1C)C(=O)N1CCCC(N1)C(=O)OCC(C)(C)C2,IC50,second compound 0.000949 µM,< 0.949 nM
same,IC50,second compound 0.003 µM,< 0.949 nM
same,IC50,second compound 0.00949 µM,< 0.949 nM
same,IC50,second compound 0.03 µM,< 0.949 nM
same,IC50,second compound 0.0949 µM,< 0.949 nM
same,IC50,second compound 0.3 µM,< 0.949 nM
same,"viability, T/C","second compound 0.000949 µM, first compound 0.000949 µM",30.6%
same,"viability, T/C","second compound 0.000949 µM, first compound 0.003 µM",29.6%
same,"viability, T/C","second compound 0.000949 µM, first compound 0.00949 µM",32.5%
same,"viability, T/C","second compound 0.000949 µM, first compound 0.03 µM",31.7%
same,"viability, T/C","second compound 0.000949 µM, first compound 0.0949 µM",30%
same,"viability, T/C","second compound 0.000949 µM, first compound 0.3 µM",33.4%
same,"viability, T/C","second compound 0.003 µM, first compound 0.000949 µM",24.3%
same,"viability, T/C","second compound 0.003 µM, first compound 0.003 µM",24%
same,"viability, T/C","second compound 0.003 µM, first compound 0.00949 µM",27.2%
same,"viability, T/C","second compound 0.003 µM, first compound 0.03 µM",27.5%
same,"viability, T/C","second compound 0.003 µM, first compound 0.0949 µM",26.9%
same,"viability, T/C","second compound 0.003 µM, first compound 0.3 µM",31.3%
same,"viability, T/C","second compound 0.00949 µM, first compound 0.000949 µM",21.2%
same,"viability, T/C","second compound 0.00949 µM, first compound 0.003 µM",21.1%
same,"viability, T/C","second compound 0.00949 µM, first compound 0.00949 µM",23.1%
same,"viability, T/C","second compound 0.00949 µM, first compound 0.03 µM",21.6%
same,"viability, T/C","second compound 0.00949 µM, first compound 0.0949 µM",25.4%
same,"viability, T/C","second compound 0.00949 µM, first compound 0.3 µM",24.8%
same,"viability, T/C","second compound 0.03 µM, first compound 0.000949 µM",22.2%
same,"viability, T/C","second compound 0.03 µM, first compound 0.003 µM",21.2%
same,"viability, T/C","second compound 0.03 µM, first compound 0.00949 µM",25.4%
same,"viability, T/C","second compound 0.03 µM, first compound 0.03 µM",23.5%
same,"viability, T/C","second compound 0.03 µM, first compound 0.0949 µM",25%
same,"viability, T/C","second compound 0.03 µM, first compound 0.3 µM",22.8%
same,"viability, T/C","second compound 0.0949 µM, first compound 0.000949 µM",19.1%
same,"viability, T/C","second compound 0.0949 µM, first compound 0.003 µM",22.9%
same,"viability, T/C","second compound 0.0949 µM, first compound 0.00949 µM",24.6%
same,"viability, T/C","second compound 0.0949 µM, first compound 0.03 µM",20.7%
same,"viability, T/C","second compound 0.0949 µM, first compound 0.0949 µM",23.1%
same,"viability, T/C","second compound 0.0949 µM, first compound 0.3 µM",28.9%
same,"viability, T/C","second compound 0.3 µM, first compound 0.000949 µM",19.7%
same,"viability, T/C","second compound 0.3 µM, first compound 0.003 µM",22.6%
same,"viability, T/C","second compound 0.3 µM, first compound 0.00949 µM",26.8%
same,"viability, T/C","second compound 0.3 µM, first compound 0.03 µM",24.1%
same,"viability, T/C","second compound 0.3 µM, first compound 0.0949 µM",28.1%
same,"viability, T/C","second compound 0.3 µM, first compound 0.3 µM",28.1%
